Data on 27 compounds can be found in ChEMBL document CHEMBL3407452, “Linear and branched alkyl-esters and amides of gallic acid and other (mono-, di- and tri-) hydroxy benzoyl derivatives as promising anti-HCV inhibitors” (Eur J Med Chem, 2015).

Calls of active or inactive are those of the source. The rule behind the calls is not given here.

The test system of data set [1] is Human immunodeficiency virus 1. Kind of data set: Antiviral activity against HIV1 3B infected in human CEM cells assessed as reduction in virus-induced cytopathicity after 4 to 5 days by microscopy based syncytium cell formation assay. In kind it is functional, organism-based, CCRF-CEM. On the technique in general: Cytopathic effects are the visible damage that an infection or toxin causes in cultured cells.

The test system of data set [2] is Human immunodeficiency virus 2. The data set is described as follows: Antiviral activity against HIV2 ROD infected in human CEM cells assessed as reduction in virus-induced cytopathicity after 4 to 5 days by microscopy based syncytium cell formation assay. The format is functional, organism-based, ISOLATE ROD, CCRF-CEM.
Data set [3] is described as follows: Cytotoxicity against human CEM cells assessed as inhibition of cell proliferation. The format is cell-based. As to conditions: CEM cells (CCRF-CEM).
For data set [4], the system named is Vaccinia virus. The data set is described as follows: Antiviral activity against vaccinia virus. As to conditions: Orthopoxvirus vaccinia. The format is functional, organism-based.
Data set [5] deals with Vesicular stomatitis virus. Kind of data set: Antiviral activity against vesicular stomatitis virus. In kind it is functional, organism-based.
Data set [6] relates to Coxsackievirus B4. The data set is described as follows: Antiviral activity against human coxsackievirus B4. The format is functional, organism-based.
Data set [7] has as its system Respiratory syncytial virus. The data set is described as follows: Antiviral activity against RSV. The format is functional, organism-based.
Data set [8] deals with Human respirovirus 3. The data set is described as follows: Antiviral activity against human parainfluenza virus 3. In kind it is functional, organism-based.
The test system of data set [9] is Reovirus sp. The data set is described as follows: Antiviral activity against reovirus. In kind it is functional, organism-based.
The test system of data set [10] is Sindbis virus. Kind of data set: Antiviral activity against sindbis virus. In kind it is functional, organism-based.
In data set [11] the test system is Influenza A virus H3N2. Kind of data set: Antiviral activity against influenza A virus H3N2. In kind it is functional, organism-based.
For data set [12], the system named is Influenza A virus. Kind of data set: Antiviral activity against influenza A virus (H1N1). In kind it is functional, organism-based.
In data set [13] the test system is Punta Toro virus. The data set is described as follows: Antiviral activity against punta toro virus. In kind it is functional, organism-based.
For data set [14], the system named is Feline coronavirus. Kind of data set: Antiviral activity against feline coronavirus. The format is functional, organism-based.
The test system of data set [15] is Felid alphaherpesvirus 1. Kind of data set: Antiviral activity against feline herpesvirus. The format is functional, organism-based.
For data set [16], the system named is Chikungunya virus. The data set is described as follows: Antiviral activity against chikungunya virus. The format is functional.
Data set [17] has as its system Hepatitis C virus. The data set is described as follows: Antiviral activity against HCV genotype 1b I389luc-ubi-neo/NS3-3'/5.1 replicons infected in human Huh5-2 HCV subgenomic replicon-containing cells assessed as reduction in virus replication after 3 days by luciferase reporter gene assay. The format is functional, Hepacivirus hominis. As to conditions: for EC90: Hepacivirus hominis.

Where [18] appears, read: Human immunodeficiency virus 1, 3B, CCRF-CEM, read-out: EC50.

On to `O=C(NCCNC(=O)c1ccccc1O)c1ccccc1O`, for which the EC50 – broadly, the concentration giving half of the maximal effect – is greater than 10 µM in [1] (setting [18]) and greater than 10 µM in data set [2] (Human immunodeficiency virus 2, ISOLATE ROD, CCRF-CEM, read-out: EC50). Also, in data set [3], the CC50 – broadly, the concentration at which the toxic effect on the cells reaches its halfway point – worked out at 25 µM. Besides, the outcome in [4], in [5], in [6], in data set [7], in data set [8] and in data set [9] was inactive. The result in data set [10], in data set [11], in data set [12], in data set [13], in data set [14] and in data set [15] was inactive. In data set [16], the outcome was inactive.

Take `COc1cc(C(=O)NCCN(CCNC(=O)c2cc(OC)c(OC)c(OC)c2)C(=O)c2cc(OC)c(OC)c(OC)c2)cc(OC)c1OC`: the EC50 result in [1] (ccrf-cem), in [2] (ccrf-cem) and in data set [17] was “Not Active” in each case. The EC90 entry in [17] is “inactive”.

For the compound `C[C@H](Cn1cnc2c(N)ncnc21)OCP(=O)(O)O` [TENOFOVIR ANHYDROUS], the CC50 in data set [3] was greater than 100 µM.

For `COc1cc(C(=O)NCCCCCCCCCCNC(=O)c2cc(OC)c(OC)c(OC)c2)cc(OC)c1OC`, the half-maximal effective concentration (EC50) entry in data set [1] (ccrf-cem), in data set [2] (ccrf-cem) and in data set [17] was “Not Active” in each case. The EC90 result in data set [17] is “inactive”.

For `O=C(NCCCCN(CCCNC(=O)c1ccc(OCc2ccccc2)c(OCc2ccccc2)c1OCc1ccccc1)C(=O)c1ccc(OCc2ccccc2)c(OCc2ccccc2)c1OCc1ccccc1)c1ccc(OCc2ccccc2)c(OCc2ccccc2)c1OCc1ccccc1`, the EC50 entry in data set [1] (ccrf-cem), in [2] (ccrf-cem) and in data set [17] was “Not Active” in each case. The EC90 entry in data set [17] is “inactive”.

In the case of `COc1cccc(C(=O)NCCNC(=O)c2cccc(OC)c2OC)c1OC`, the concentration giving a half-maximal response (EC50) entry in data set [1] (ccrf-cem), in data set [2] (ccrf-cem) and in data set [17] was “Not Active” throughout. In addition, the EC90 result in data set [17] was “inactive”.

For the compound `O=C(NCCN(CCNC(=O)c1ccc(OCc2ccccc2)c(OCc2ccccc2)c1OCc1ccccc1)CCNC(=O)c1ccc(OCc2ccccc2)c(OCc2ccccc2)c1OCc1ccccc1)c1ccc(OCc2ccccc2)c(OCc2ccccc2)c1OCc1ccccc1`, the EC50 result in data set [1] (ccrf-cem), in [2] (ccrf-cem) and in [17] was “Not Active” each time. The EC90 result in [17] was “inactive”.

As to `O=C(NCCNC(=O)c1ccccc1OCc1ccccc1)c1ccccc1OCc1ccccc1`, the EC50 result in data set [1] (ccrf-cem), in data set [2] (ccrf-cem) and in data set [17] was “Not Active” each time. The EC90 result in [17] is “inactive”.

Turning to `O=C(NCCCCNC(=O)c1ccccc1OCc1ccccc1)c1ccccc1OCc1ccccc1`, the EC50 entry in data set [1] (ccrf-cem), in data set [2] (ccrf-cem) and in data set [17] was “Not Active” throughout. For the same compound, the EC90 entry in data set [17] was “inactive”.

As for `COc1cc(C(=O)NCCN(CCN(CCN(CCNC(=O)c2cc(OC)c(OC)c(OC)c2)C(=O)c2cc(OC)c(OC)c(OC)c2)C(=O)c2cc(OC)c(OC)c(OC)c2)C(=O)c2cc(OC)c(OC)c(OC)c2)cc(OC)c1OC`, the EC50 entry in [1] (ccrf-cem), in data set [2] (ccrf-cem) and in data set [17] was “Not Active” each time. Besides, the EC90 result in data set [17] was “inactive”.

With `O=C(NCCCCCCCCCCCCNC(=O)c1ccccc1OCc1ccccc1)c1ccccc1OCc1ccccc1`, the EC50 entry in data set [1] (ccrf-cem), in data set [2] (ccrf-cem) and in [17] was “Not Active” each time. The EC90 entry in data set [17] is “inactive”.

`O=C(NCCCCNC(=O)c1ccc(OCc2ccccc2)c(OCc2ccccc2)c1OCc1ccccc1)c1ccc(OCc2ccccc2)c(OCc2ccccc2)c1OCc1ccccc1`: the EC50 result in data set [1] (ccrf-cem), in [2] (ccrf-cem) and in data set [17] was “Not Active” each time. For the same compound, the EC90 entry in data set [17] was “inactive”.

On to `COc1cc(C(=O)NCCCCCCNC(=O)c2cc(OC)c(OC)c(OC)c2)cc(OC)c1OC`, for which the EC50 result in [1] (ccrf-cem), in data set [2] (ccrf-cem) and in data set [17] was “Not Active” in each case. Besides, in [17], the EC90 entry is “inactive”.

Take `COc1cccc(C(=O)NCCCCNC(=O)c2cccc(OC)c2OC)c1OC`: the EC50 entry in [1] (ccrf-cem), in [2] (ccrf-cem) and in [17] was “Not Active” each time. The EC90 result in data set [17] is “inactive”.

`O=C(NCCCCCCCCCCCCNC(=O)c1ccc(OCc2ccccc2)c(OCc2ccccc2)c1OCc1ccccc1)c1ccc(OCc2ccccc2)c(OCc2ccccc2)c1OCc1ccccc1`: the EC50 entry in data set [1] (ccrf-cem), in [2] (ccrf-cem) and in data set [17] was “Not Active” in each case. In addition, in [17], the EC90 result is “inactive”.

For `O=C(NCCCCCCCCNC(=O)c1ccc(OCc2ccccc2)c(OCc2ccccc2)c1OCc1ccccc1)c1ccc(OCc2ccccc2)c(OCc2ccccc2)c1OCc1ccccc1`, the concentration for a half-maximal effect (EC50) result in [1] (ccrf-cem), in [2] (ccrf-cem) and in [17] was “Not Active” in each case. Further, the EC90 result in data set [17] is “inactive”.

Turning to `CN[C@@H]1[C@H](O[C@@H]2OC[C@@H](O)[C@H](O)[C@H]2O)[C@@H](O)[C@H](O[C@H]2c3cc(C)c(C(=O)N[C@H](C)C(=O)O)c(O)c3-c3c(cc4c(c3O)C(=O)c3cc(OC)cc(O)c3C4=O)[C@@H]2O)O[C@@H]1C` [PRADIMICIN A], the EC50 in data set [1] (setting [18]) was determined as 3.3 µM. Also, the CC50 in data set [3] was greater than 100 µM.

With `COc1cccc(C(=O)NCCCCCCCCCCCCNC(=O)c2cccc(OC)c2OC)c1OC`, the EC50 result in data set [1] (ccrf-cem), in [2] (ccrf-cem) and in data set [17] was “Not Active” in each case. For the same compound, the EC90 entry in data set [17] was “inactive”.

Turning to `O=C(NCCCCCCNC(=O)c1ccc(OCc2ccccc2)c(OCc2ccccc2)c1OCc1ccccc1)c1ccc(OCc2ccccc2)c(OCc2ccccc2)c1OCc1ccccc1`, the EC50 entry in [1] (ccrf-cem), in data set [2] (ccrf-cem) and in data set [17] was “Not Active” each time. Also, the EC90 entry in data set [17] was “inactive”.

As for `O=C(NCCCCCCCCCCNC(=O)c1ccc(OCc2ccccc2)c(OCc2ccccc2)c1OCc1ccccc1)c1ccc(OCc2ccccc2)c(OCc2ccccc2)c1OCc1ccccc1`, the EC50 result in [1] (ccrf-cem), in data set [2] (ccrf-cem) and in [17] was “Not Active” throughout. In data set [17], the EC90 result is “inactive”.

Take `O=C(NCCCCNC(=O)c1cccc(O)c1O)c1cccc(O)c1O`: the EC50 in data set [1] (setting [18]) was greater than 2 µM. Also, in data set [3], the CC50 is 5.2 µM. The outcome in data set [4], in data set [5], in data set [6], in data set [7], in data set [8] and in data set [9] was inactive. Further, the result in data set [10], in data set [11], in data set [12], in data set [13], in data set [14] and in data set [15] was inactive. The outcome in data set [16] was inactive.

On to `COc1cc(C(=O)NCCCCCCCCCCCCNC(=O)c2cc(OC)c(OC)c(OC)c2)cc(OC)c1OC`, for which the EC50 entry in data set [1] (ccrf-cem), in [2] (ccrf-cem) and in data set [17] was “Not Active” each time. The EC90 result in [17] is “inactive”.

With `COc1cc(C(=O)NCCN(CCNC(=O)c2cc(OC)c(OC)c(OC)c2)CCNC(=O)c2cc(OC)c(OC)c(OC)c2)cc(OC)c1OC`, the EC50 result in [1] (ccrf-cem), in data set [2] (ccrf-cem) and in [17] was “Not Active” each time. For the same compound, in [17], the EC90 entry is “inactive”.

With `COc1cc(C(=O)NCCCCCCCCNC(=O)c2cc(OC)c(OC)c(OC)c2)cc(OC)c1OC`, the EC50 result in data set [1] (ccrf-cem), in data set [2] (ccrf-cem) and in data set [17] was “Not Active” in each case. Also, in [17], the EC90 entry is “inactive”.

For the compound `COc1cc(C(=O)NCCCCN(CCCNC(=O)c2cc(OC)c(OC)c(OC)c2)C(=O)c2cc(OC)c(OC)c(OC)c2)cc(OC)c1OC`, the EC50 entry in data set [1] (ccrf-cem), in data set [2] (ccrf-cem) and in [17] was “Not Active” each time. In addition, the EC90 result in [17] is “inactive”.

On to `O=C(NCCCOCCOCCOCCCNC(=O)c1ccc(OCc2ccccc2)c(OCc2ccccc2)c1OCc1ccccc1)c1ccc(OCc2ccccc2)c(OCc2ccccc2)c1OCc1ccccc1`, for which the EC50 entry in [1] (ccrf-cem), in data set [2] (ccrf-cem) and in [17] was “Not Active” each time. In [17], the EC90 result is “inactive”.

As to `COc1cc(C(=O)NCCCCNC(=O)c2cc(OC)c(OC)c(OC)c2)cc(OC)c1OC`, the concentration for a half-maximal effect (EC50) entry in data set [1] (ccrf-cem), in data set [2] (ccrf-cem) and in [17] was “Not Active” throughout. Moreover, the EC90 entry in [17] was “inactive”.
